The values that follow come from PubChem BioAssay (NCI).

Some test systems named below: OVCAR-4 ovarian; LOX IMVI melanoma; SF-268 CNS; OVCAR-8 ovarian; COLO 205 colon; NCI-H522 lung; KM12 colon; RXF 393 renal; K-562 leukemia; SK-MEL-5 melanoma.
Test in all cases: DTP human tumour cell line panel, 48 h

Molecules are shown by their SMILES. Several values for one entry are separate records, joined by “and”; a condition that tells them apart may be missing. Equal values may be shown once.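 These data come from cells grown in 96-well plates and exposed to compound for 48 hours at five concentrations. Here, GI50 denotes the concentration required for 50% inhibition of growth. TGI marks complete inhibition of growth.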

For `COc1ccc(C2CC(c3ccc4ccccc4c3)=NN2c2nc(O)c(C3=c4cc(OC)ccc4=NC3=O)s2)cc1` (configuration not stated), the GI50 with OVCAR-4 ovarian was 0.033 µM; in the experiment with LOX IMVI melanoma, 0.0359 µM; with SF-268 CNS, 0.0615 µM; with OVCAR-8 ovarian, 0.0646 µM; in the experiment with COLO 205 colon, 0.0382 µM; with NCI-H522 lung, 0.0519 µM. For the same compound, the GI50 in the experiment on KM12 colon was 0.0856 µM; in the experiment with RXF 393 renal it was 0.0266 µM; in the experiment on K-562 leukemia it was 0.0662 µM; in the experiment with SK-MEL-5 melanoma, 0.0899 µM. Besides, the TGI came to 0.128 µM with OVCAR-4 ovarian; 0.127 µM in the experiment on LOX IMVI melanoma; 0.241 µM in the experiment on SF-268 CNS; 1.26 µM in the experiment on OVCAR-8 ovarian; 0.129 µM in the experiment on COLO 205 colon; 0.154 µM with NCI-H522 lung. In addition, the TGI was 0.286 µM in the experiment with KM12 colon, 0.0831 µM with RXF 393 renal, over 32.3 µM with K-562 leukemia and 0.243 µM in the experiment on SK-MEL-5 melanoma.

Turning to `CCOc1cc(/C=C/C(=O)C(C(=O)/C=C/c2ccc(OC(=O)CNc3nnc(C)s3)c(OCC)c2)C(=O)CNc2nnc(C)s2)ccc1OC(=O)CNc1nnc(C)s1`, the GI50 with OVCAR-4 ovarian was 3.91 µM; in the experiment on LOX IMVI melanoma it was 0.897 µM; with SF-268 CNS, 1.36 µM; with OVCAR-8 ovarian, 3.43 µM; in the experiment with COLO 205 colon, 1.7 µM; with NCI-H522 lung it was 2.03 µM. Also, the GI50 with KM12 colon was 1.3 µM; in the experiment on RXF 393 renal it was 1.55 µM; in the experiment with K-562 leukemia it was 0.352 µM; with SK-MEL-5 melanoma, 1.71 µM. Besides, the TGI in the experiment with OVCAR-4 ovarian was found to be 45.1 µM; in the experiment with LOX IMVI melanoma it was 2.21 µM; in the experiment on SF-268 CNS, 4.13 µM; in the experiment with OVCAR-8 ovarian, 14.4 µM; in the experiment on COLO 205 colon it was 3.54 µM; with NCI-H522 lung it was 5.71 µM. Besides, the TGI in the experiment on KM12 colon is 2.94 µM; in the experiment with RXF 393 renal, 4.85 µM; in the experiment with K-562 leukemia, over 100 µM; in the experiment on SK-MEL-5 melanoma, 3.29 µM.

As for `CC(=O)N(CCN1C(=O)c2ccccc2C1=O)CCN1C(=O)c2ccccc2C1=O`, the TGI with OVCAR-4 ovarian, in the experiment on LOX IMVI melanoma, with SF-268 CNS, with OVCAR-8 ovarian, in the experiment with COLO 205 colon and in the experiment on NCI-H522 lung was over 100 µM throughout. The TGI in the experiment with KM12 colon, in the experiment on RXF 393 renal, with K-562 leukemia and with SK-MEL-5 melanoma was over 100 µM each time.

On to `Cn1c(=O)c2[nH]c(CCCc3ccc([N+](=O)[O-])cc3)nc2n(C)c1=O`, for which the TGI with OVCAR-4 ovarian, with LOX IMVI melanoma, with SF-268 CNS, with OVCAR-8 ovarian, in the experiment on COLO 205 colon and in the experiment on NCI-H522 lung was over 100 µM throughout. The total growth inhibition concentration (TGI) in the experiment with KM12 colon, with RXF 393 renal, in the experiment with K-562 leukemia and in the experiment on SK-MEL-5 melanoma was over 100 µM each time.

`NC(CO)c1ccc(OCc2ccccc2)cc1` (configuration not stated): the total growth inhibition concentration (TGI) with OVCAR-4 ovarian, with LOX IMVI melanoma, in the experiment on SF-268 CNS, in the experiment on OVCAR-8 ovarian, in the experiment on COLO 205 colon and in the experiment on NCI-H522 lung was over 100 µM throughout. In addition, the TGI in the experiment with KM12 colon, in the experiment with RXF 393 renal, in the experiment with K-562 leukemia and with SK-MEL-5 melanoma was over 100 µM each time.

As to `CCC(C)(C)[C@H](NC(=O)[C@H]1CCCCN1C)C(=O)N(C)[C@H](C[C@@H](OC(C)=O)c1nc(C(=O)N[C@@H](Cc2ccccc2)C[C@H](C)C(=O)O)cs1)C(C)C`, the GI50 is 0.00798 µM in the experiment with OVCAR-4 ovarian; under 0.00167 µM with LOX IMVI melanoma; 0.00217 µM with SF-268 CNS; under 0.00167 µM with OVCAR-8 ovarian; under 0.00167 µM with COLO 205 colon; under 0.00167 µM with NCI-H522 lung. In addition, the GI50 with KM12 colon, in the experiment with RXF 393 renal, in the experiment with K-562 leukemia and in the experiment on SK-MEL-5 melanoma was under 0.00167 µM each time. The concentration for total growth inhibition (TGI) is over 16.7 µM in the experiment with OVCAR-4 ovarian; over 16.7 µM in the experiment on LOX IMVI melanoma; over 16.7 µM in the experiment with SF-268 CNS; over 16.7 µM in the experiment on OVCAR-8 ovarian; 0.00277 µM in the experiment with COLO 205 colon; 0.00583 µM in the experiment with NCI-H522 lung. Besides, the TGI was over 16.7 µM in the experiment with KM12 colon, over 16.7 µM in the experiment on K-562 leukemia and 0.00294 µM in the experiment on SK-MEL-5 melanoma.

For `CS(=N)(=O)CCC(N)P(=O)(O)O` (configuration not stated), the TGI with OVCAR-4 ovarian, with LOX IMVI melanoma, with SF-268 CNS, in the experiment on OVCAR-8 ovarian, in the experiment with COLO 205 colon and with NCI-H522 lung was over 100 µM each time. Besides, the TGI with KM12 colon, in the experiment with RXF 393 renal, with K-562 leukemia and in the experiment on SK-MEL-5 melanoma was over 100 µM throughout.

`CCOC(=O)Nc1ccc2c(c1)N(C(=O)CCN(CC)CC)c1ccccc1S2`: the GI50 with OVCAR-4 ovarian is 84 µM; in the experiment with SF-268 CNS, 55 µM; in the experiment on OVCAR-8 ovarian, 1.51 µM; with COLO 205 colon it was 47 µM; with NCI-H522 lung, 17 µM; with KM12 colon, 35.9 µM. For the same compound, the values for the GI50 in the experiment on RXF 393 renal, in the experiment with K-562 leukemia and in the experiment on SK-MEL-5 melanoma were 15.4 µM, 19.7 µM and 36.1 µM, respectively. Further, the TGI in the experiment with OVCAR-4 ovarian was 234 µM; with LOX IMVI melanoma it was 37.6 µM and 67 µM; in the experiment on SF-268 CNS, > 74.6 µM and 128 µM; in the experiment on OVCAR-8 ovarian it was 2.5 µM; with COLO 205 colon, 47.7 µM and 120 µM; in the experiment on NCI-H522 lung it was 37.1 µM and 167 µM. Moreover, the TGI was 24.6 µM and 110 µM with KM12 colon; 64.1 µM and 59.5 µM with RXF 393 renal; over 81.8 µM in the experiment on K-562 leukemia; 34.3 µM and 100 µM with SK-MEL-5 melanoma.

As to `O=C(NS(=O)(=O)c1ccc(NC[C@H]2COCCO2)c([N+](=O)[O-])c1)c1ccc(N2CCN(CC3=C(c4ccc(Cl)cc4)CC4(CCC4)CC3)CC2)cc1Oc1cnc2[nH]ccc2c1`, the GI50 with OVCAR-4 ovarian was 2.47 µM; with LOX IMVI melanoma, 1.85 µM; with SF-268 CNS it was 2.97 µM; in the experiment with OVCAR-8 ovarian it was 2.18 µM; in the experiment with COLO 205 colon, 1.85 µM; with NCI-H522 lung it was 1.93 µM. Also, the GI50 is 2.21 µM in the experiment with KM12 colon, 1.32 µM in the experiment with RXF 393 renal, 3.04 µM in the experiment on K-562 leukemia and 1.6 µM in the experiment with SK-MEL-5 melanoma. In addition, the TGI with OVCAR-4 ovarian came out at 9.81 µM; in the experiment with LOX IMVI melanoma, 3.63 µM; in the experiment with SF-268 CNS, 17.9 µM; in the experiment with OVCAR-8 ovarian, 5.06 µM; with COLO 205 colon, 3.4 µM; in the experiment on NCI-H522 lung, 4.62 µM. Besides, the TGI is 5.11 µM with KM12 colon, 2.76 µM in the experiment on RXF 393 renal, over 100 µM with K-562 leukemia and 2.97 µM in the experiment with SK-MEL-5 melanoma.

`NC(=S)N/N=C(\CCC(=O)Nc1ccccc1[N+](=O)[O-])CC(=O)c1ccco1`: the TGI in the experiment on OVCAR-4 ovarian, with LOX IMVI melanoma, in the experiment on SF-268 CNS, with OVCAR-8 ovarian, in the experiment on COLO 205 colon and in the experiment on NCI-H522 lung was over 100 µM throughout. In addition, the concentration for total growth inhibition (TGI) with KM12 colon, in the experiment with RXF 393 renal, in the experiment on K-562 leukemia and in the experiment on SK-MEL-5 melanoma was over 100 µM throughout.

In the case of `O=c1c(O)cc2c(O)oc3c(=O)c(O)c(O)c4c(O)oc1c2c43`, the total growth inhibition concentration (TGI) was 33.3 µM with OVCAR-4 ovarian; 34.1 µM in the experiment on LOX IMVI melanoma; over 100 µM in the experiment on SF-268 CNS; over 100 µM with OVCAR-8 ovarian; over 100 µM in the experiment on COLO 205 colon; over 100 µM with NCI-H522 lung. Also, the total growth inhibition concentration (TGI) is over 100 µM with KM12 colon, over 100 µM with RXF 393 renal, 57.9 µM with K-562 leukemia and over 100 µM in the experiment with SK-MEL-5 melanoma.

For `O=C(Cc1ccc(Nc2ccnc(C(F)(F)F)c2)cc1)N/N=C/c1ccccc1O`, the GI50 in the experiment with OVCAR-4 ovarian was 3.29 µM; in the experiment with LOX IMVI melanoma, 1.34 µM; in the experiment on SF-268 CNS it was 2.17 µM; with OVCAR-8 ovarian, 3.15 µM; in the experiment with COLO 205 colon, 4.33 µM; with NCI-H522 lung, 8.96 µM. Also, the GI50 was 2.09 µM with KM12 colon, 3.95 µM with RXF 393 renal, 2.74 µM in the experiment on K-562 leukemia and 2.58 µM with SK-MEL-5 melanoma. In addition, the total growth inhibition concentration (TGI) is over 100 µM with OVCAR-4 ovarian; 15.9 µM in the experiment with LOX IMVI melanoma; over 73.8 µM with SF-268 CNS; over 69.4 µM with OVCAR-8 ovarian; 22.8 µM in the experiment with COLO 205 colon; 35.9 µM in the experiment on NCI-H522 lung. Besides, the concentration for total growth inhibition (TGI) in the experiment on KM12 colon turned out to be 15.5 µM; with RXF 393 renal it was 38.7 µM; in the experiment with K-562 leukemia, 20.1 µM; in the experiment with SK-MEL-5 melanoma, 11.1 µM.

Regarding `CCN1C(=O)N(CC)C2C1NC(=S)N2/N=C/C=C/c1ccccc1OC` (configuration not stated), the GI50 was 0.125 µM in the experiment with OVCAR-4 ovarian; 0.0342 µM in the experiment on LOX IMVI melanoma; 0.0535 µM in the experiment with SF-268 CNS; 0.0378 µM in the experiment on OVCAR-8 ovarian; 0.0315 µM in the experiment on COLO 205 colon; 0.0253 µM with NCI-H522 lung. Further, the concentration for 50% growth inhibition (GI50) was 0.0406 µM in the experiment on KM12 colon, 0.0521 µM in the experiment on RXF 393 renal, 0.0276 µM in the experiment on K-562 leukemia and 0.0305 µM in the experiment with SK-MEL-5 melanoma. Moreover, the TGI is over 100 µM in the experiment on OVCAR-4 ovarian; over 100 µM with LOX IMVI melanoma; over 100 µM in the experiment on SF-268 CNS; over 100 µM in the experiment on OVCAR-8 ovarian; 0.7 µM in the experiment on COLO 205 colon; over 100 µM in the experiment on KM12 colon. For the same compound, the values for the TGI in the experiment on RXF 393 renal, with K-562 leukemia and in the experiment with SK-MEL-5 melanoma were over 100 µM, over 100 µM and 0.158 µM, respectively.

On to `Cn1c2cc([N+](=O)[O-])ccc2c(=O)c2c(O)cc3c(c21)C=CC(C)(C)O3`, for which the TGI in the experiment on OVCAR-4 ovarian, with LOX IMVI melanoma, in the experiment on SF-268 CNS, with OVCAR-8 ovarian, in the experiment on COLO 205 colon and in the experiment on NCI-H522 lung was over 100 µM each time. Further, the concentration for total growth inhibition (TGI) in the experiment with KM12 colon is over 100 µM; with RXF 393 renal, 74.5 µM; with K-562 leukemia, over 100 µM; with SK-MEL-5 melanoma, over 100 µM.

As a reminder, the GI50 is the concentration that inhibits growth by half. The term TGI denotes the concentration at which net growth stops. High values mean less potent growth arrest, low ones more potent growth arrest.
